What was measured:
[1] = test system: LC3; assay: LC3-II/LC3-I ratio (autophagy) in 293 ATXN3/Q75 cells, Western blot; assay type: cell-based, human; details: 293 ATXN3/Q75 cells +Dox 6 days, 200 nM; +Dox alone 59%
Method: Total proteins were prepared using lysis buffer containing 50 mM Tris-HCl, 150 mM NaCl, 1 mM EDTA, 1 mM EGTA, 0.1% SDS and 0.5% sodium deoxycholate, 1% Triton X-100, and protease inhibitor cocktail (Calbiochem). Proteins (25 μg) were separated on 10% SDS-polyacrylamide gel electrophoresis and blotted on to nitrocellulose membranes by reverse electrophoresis. After blocking, the membrane was probed with antibody to HSF1 (1:1000 dilution, Abnova), HSPA8 (1:500 dilution, Santa Cruz), HSPA1A (1:500 dilution, Santa Cruz), GFP (1:500 dilution, Santa Cruz), LC3 (1:3000 dilution, MBL International), TBP (N-12) (1:500 dilution, Santa Cruz), β-actin (1:5000 dilution, Millipore) or GAPDH (1:1000 dilution, MDBio) at 4° C. overnight. Then the immune complexes were detected by horseradish peroxidase-conjugated goat anti-mouse (Jackson ImmunoResearch) or goat anti-rabbit (Rochland) IgG antibody (1:5000 dilution, GeneTex) and chemiluminescent substrate (Millipore).

[2] = test system: HSF1 promoter; assay: Triple fluorescent reporter cells, HSF1 promoter activity; assay type: cell-based, human; details: 100 nM-100 μM, 24 hours
Text: (§1) Referring to three references (Zhang Y, Koushik S, Dai R, Mivechi N F, Journal of Biological Chemistry, vol. 273, no. 49, pp. 32514-32521, 1998; He M, Guo H, Yang X, Zhou L, Zhang X, Cheng L, Zeng H, Hu F B, Tanguay R M, Wu T, PLoS One, vol. 5, no. 3, e9684, 2010; and Wu Y R, Wang C K, Chen C M, Hsu Y, Lin S J, Lin Y Y, Fung H C, Chang K H, Lee-Chen G J, Human Genetics, vol. 114, no. 3, pp. 236-241, 2004), a triple fluorescent reporter plasmid was constructed in pAmCyan1-N1 with mCherry, ZsYellow1 and AmCyan1 fluorescent reporters driven by heat shock transcription factor1 (HSF1, −360˜+2, with the translation initiation A as +1), heat shock cognate protein (HSPA8, −1140˜+38, driving constitutively expressed HSP70) and heat-inducible HSP70 chaperone (HSPA1A, −273˜+215, driving heat-inducible HSP70) promoters, respectively. The fragment containing the HSF1, HSPA8 and HSPA1A driven reporters was removed with AseI and NotI restriction enzymes and used to replace an AseI-NotI fragment in pcDNA5/FRT/TO plasmid (Invitrogen). The resulting triple fluorescent reporter plasmid was used to generate triple fluorescent reporter cells by targeted insertion into Flp-In™-293 cells, according to the supplier's instructions (Invitrogen). The cells were selected by medium containing 5 μg/mL blasticidin S and 100 μg/mL hygromycin.
(§2) The three fluorescence colors were analyzed simultaneously using high-content analysis (HCA) system (ImageXpressMICRO, Molecular Devices), with excitation/emission wavelengths at […], 531/540 (ZsYellow1) and […].

[3] = test system: HSPA8 promoter; assay: Triple fluorescent reporter cells, HSPA8 promoter activity; assay type: cell-based, human; details: 100 nM-100 μM, 24 hours
Text: as §1, §2

[4] = in vitro; details: human, SH-SY5Y cells
Method: (§3) Human embryonic kidney HEK-293 cells (ATCC No. CRL-1573) were cultivated in Dulbecco's modified Eagle's medium (DMEM) containing 10% fetal bovine serum (FBS). Human neuroblastoma SH-SY5Y cells (ATCC No. CRL-2266) were maintained in DMEM F12 supplemented with 10% FBS. Cells were cultivated at 37° C. incubator containing 5% CO2 and cell proliferation was measured based upon the reduction of the tetrazolium salt, 3,[4,5-dimethylthiazol-2-yl]-2,5-diphenyl-tetrazolium bromide (MTT). […] After one day, 20 μL MTT (5 mg/mL in PBS, Sigma) was added to cells and incubated for 2 hours. The absorbance of the purple formazan dye was measured at 570 nm by a Bio-Tek μtQuant Universal Microplate Spectrophotometer.

[5] = test system: HSPA1A promoter; assay: Triple fluorescent reporter cells, HSPA1A promoter activity; assay type: cell-based, human; details: 100 nM-100 μM, 24 hours
Text: as §1, §2

[6] = test system: SCA17 mouse cerebellar slice culture; assay: SCA17 mouse cerebellar slice culture, Purkinje cell aggregation; assay type: cell-based
Method: Cerebellum was separated from p7 SCA17 mice and transferred to ice-cold medium containing 50% basal medium eagle (Invitrogen), 25% Hank's buffered salt solution (Invitrogen), 25% horse serum (Invitrogen), 0.5% D-glucose (Sigma), 1 mM GlutaMAX I (Invitrogen), 100 U/mL penicillin (Invitrogen) and 100 μg/mL streptomycin (Invitrogen). The cerebellum was separated from the other brain regions in ice-cold medium, and the hemisphere was then cut into 350 μm parasagittal sections with a vibratome (VT1200S, Leica). To improve the survival rate of cerebellar slices, we continuously bubbled the medium with 95% O2 and 5% CO2 during the sectioning. The slices were then cultured on 0.4 μm pore size culture plate inserts (Millipore) in six-well plates. All treatments were applied to the slices at day 2. After culture for 7 days, cells were immunostained with primary antibody [IP3R-1 (for Purkinje cells), 1:1000, Santa Cruz; 1TBP18 (for aggregation), 1:30000, QED Bioscience], fluorescence-conjugated secondary antibody (1:500, Invitrogen) and DAPI (1:10000, Sigma). The staining results were observed by confocal microscope (DMRE, TCS SP2, Leica).
To further confirm neuroprotective potential of the indole compounds, we applied indole and NC001-8 to the SCA17 mouse cerebellar primary and slice cultures, respectively. […]

[7] = in vitro; details: human, HEK-293 cells
Method: as §3

[8] = test system: 293 ATXN3/Q75-GFP cells; assay: ATXN3/Q75 aggregation assay (high content analysis); assay type: cell-based, human; details: at 100 nM; 6 days doxycycline and oxaliplatin
Method: Then, doxycycline (10 μg/mL, BD) was added to the medium in each well to induce ATXN3/Q75-GFP expression for 6 days. […] Then, cells were stained with Hoechst 33342 (0.1 μg/mL, Sigma) and aggregation percentage was assessed by high content analysis (HCA) system (ImageXpressMICRO, Molecular Devices), with excitation/emission wavelengths at 482/536 (EGFP).

[9] = test system: SH-SY5Y cells; assay: MTT cytotoxicity against SH-SY5Y cells; details: read-out: IC50 (cytotoxicity) against SH-SY5Y cells; MTT assay, 24 hours
Method: as §3

CO[C@H]1C[C@@H]2CC[C@@H](C)[C@@](O)(O2)C(=O)C(=O)N2CCCC[C@H]2C(=O)O[C@H]([C@H](C)C[C@@H]2CC[C@@H](O)[C@H](OC)C2)CC(=O)[C@H](C)/C=C(\C)[C@@H](O)[C@@H](OC)C(=O)[C@H](C)C[C@H](C)/C=C/C=C/C=C/1C [rapamycin]
LC3-II/LC3-I ratio [1]: 98%

O=C1CCc2[nH]c3ccccc3c21 [NC001-8, 3,4-dihydrocyclopenta[b]indol-1(2H)-one]
HSF1 promoter activity [2]: same trend of enhancement | HSPA8 promoter activity [3]: same trend of enhancement | IC50 at 24 h [4]: 390 µM | HSPA1A promoter activity [5]: same trend of enhancement | reduction of Purkinje cell aggregation ([6]; 10 μM): 16% | IC50 at 24 h [7]: > 1000 µM

O=C(CCCCCCC(=O)Nc1ccccc1)NO [SAHA, suberoylanilide hydroxamic acid]
ATXN3/Q75 aggregation as compared to untreated cells (100%) [8]: 85%

geranylgeranylacetone [GGA, reference compound]
HSF1 promoter activity [2]: enhanced | IC50 [9]: 1000 µM | ATXN3/Q75 aggregation as compared to untreated cells (100%) [8]: 85% | HSPA8 promoter activity [3]: enhanced | HSPA1A promoter activity [5]: enhanced

c1ccc2[nH]ccc2c1 [indole]
HSF1 promoter activity [2]: same trend of enhancement | HSPA8 promoter activity [3]: same trend of enhancement | IC50 at 24 h [4]: 680 µM | HSPA1A promoter activity [5]: same trend of enhancement | reduction of Purkinje cell aggregation ([6]; 10 nM): 28% | IC50 at 24 h [7]: > 1000 µM

Source: patent publication US9393229B2, “Method for treating abnormal polyglutamine-mediated disease” (NATIONAL TAIWAN NORMAL UNIVERSITY, priority 2013, dated 2016)
